Measurements reported in article PMC10221074, “Functional Profiling of the A-Family of Venom Peptides from the Wolf Spider Lycosa shansia” (Toxins, 2023).

Assays:
[1] = system: Listeria monocytogenes DSM 20600; assay: Antibacterial growth assay (OD600); details: for Bacterial growth relative to medium, L. monocytogenes, replicate 1 / Bacterial growth relative to medium, L. monocytogenes, replicate 2 / Bacterial growth relative to medium, L. monocytogenes, replicate 3: OD600, medium = 100, MH II broth, 37 °C, peptide 200 µM mixed 50 µL + 50 µL with bacteria, Figure 7: 48 h; for Bacterial growth relative to medium, L. monocytogenes, replicate 1: replicate column 1; for Bacterial growth relative to medium, L. monocytogenes, replicate 2: replicate column 2; for Bacterial growth relative to medium, L. monocytogenes, replicate 3: replicate column 3; for Antibacterial activity (in words): L. monocytogenes DSM 20600, growth after 48 h
Procedure: (§1) Cryo-conserved cultures of selected bacterial strains (Table 4) were transferred to Tryptic Soy Agar (TSA) plates (Carl Roth) with a sterile inoculation loop, sealed with Parafilm (BEMIS, Neenah, WI, USA), and incubated for 1–2 days at 37 °C depending on growth. Single colonies were picked and transferred into 2–3 mL of the Mueller–Hinton II (MH II) broth (BD, Heidelberg, Germany). The bacteria were cultivated overnight, subcultured on fresh medium and grown for 3–4 h before testing at 37 °C, with shaking at 180 rpm. We measured the optical density at 600 nm (OD600) of 1 mL of the bacterial suspensions in polystyrene cuvettes (SARSTED, Nümbrecht, Germany) using an Ultrospec 10 spectrophotometer (Biochrome, Cambridge, UK). We then diluted them with the MH II medium to the preferred OD600 (Table 2). The peptides were dissolved in DMSO to generate 10 mmol/L stocks and diluted with the MH II medium to 200 µM before the assay. We used 10 µg/mL (~40 µg/mL for S. epidermidis) gentamicin and colistin (Sigma-Aldrich, Taufkirchen, Germany), DMSO and the medium only as controls. The bacteria were transferred to 96-multiwell plates with a final volume of 100 µL per well (50 µL bacterial suspension, and 50 µL test peptide). The OD600 was measured at 0, 24 and 48 h using a BioTek Eon microplate reader followed by analysis with Gen5 v2.09.

[2] = system: B/Malaysia/2506/2004 (B-Mal); type: cell-based, influenza virus
[3] = system: Staphylococcus epidermidis DSM 28319; assay: Antibacterial growth assay (OD600); details: for Bacterial growth relative to medium, S. epidermidis, replicate 1 / Bacterial growth relative to medium, S. epidermidis, replicate 2 / Bacterial growth relative to medium, S. epidermidis, replicate 3: OD600, medium = 100, MH II broth, 37 °C, peptide 200 µM mixed 50 µL + 50 µL with bacteria, Figure 7: 48 h; for Bacterial growth relative to medium, S. epidermidis, replicate 1: replicate column 1; for Bacterial growth relative to medium, S. epidermidis, replicate 2: replicate column 2; for Bacterial growth relative to medium, S. epidermidis, replicate 3: replicate column 3
[4] = system: Escherichia coli BL21(DE3); assay: Antibacterial growth assay (OD600); details: for Bacterial growth relative to medium, E. coli, replicate 1 / Bacterial growth relative to medium, E. coli, replicate 2 / Bacterial growth relative to medium, E. coli, replicate 3: OD600, medium = 100, MH II broth, 37 °C, peptide 200 µM mixed 50 µL + 50 µL with bacteria, Figure 7: 48 h; for Bacterial growth relative to medium, E. coli, replicate 1: replicate column 1; for Bacterial growth relative to medium, E. coli, replicate 2: replicate column 2; for Bacterial growth relative to medium, E. coli, replicate 3: replicate column 3
[5] = system: Micrococcus luteus DSM 20030; assay: Antibacterial growth assay (OD600); details: for Bacterial growth relative to medium, M. luteus, replicate 1 / Bacterial growth relative to medium, M. luteus, replicate 2 / Bacterial growth relative to medium, M. luteus, replicate 3: OD600, medium = 100, MH II broth, 37 °C, peptide 200 µM mixed 50 µL + 50 µL with bacteria, Figure 7: 48 h; for Bacterial growth relative to medium, M. luteus, replicate 1: replicate column 1; for Bacterial growth relative to medium, M. luteus, replicate 2: replicate column 2; for Bacterial growth relative to medium, M. luteus, replicate 3: replicate column 3
Procedure: as §1

[6] = system: Staphylococcus aureus DSM 2569; assay: Antibacterial growth assay (OD600); details: for Bacterial growth relative to medium, S. aureus, replicate 1 / Bacterial growth relative to medium, S. aureus, replicate 2 / Bacterial growth relative to medium, S. aureus, replicate 3: OD600, medium = 100, MH II broth, 37 °C, peptide 200 µM mixed 50 µL + 50 µL with bacteria, Figure 7: 48 h; for Bacterial growth relative to medium, S. aureus, replicate 1: replicate column 1; for Bacterial growth relative to medium, S. aureus, replicate 2: replicate column 2; for Bacterial growth relative to medium, S. aureus, replicate 3: replicate column 3
[7] = system: Pseudomonas aeruginosa DSM 50071; assay: Antibacterial growth assay (OD600); details: OD600, medium = 100, MH II broth, 37 °C, peptide 200 µM mixed 50 µL + 50 µL with bacteria, Figure 7: 48 h; for Bacterial growth relative to medium, P. aeruginosa (50071), replicate 1: replicate column 1; for Bacterial growth relative to medium, P. aeruginosa (50071), replicate 2: replicate column 2; for Bacterial growth relative to medium, P. aeruginosa (50071), replicate 3: replicate column 3
Procedure: as §1

[8] = system: panel of seven bacterial strains; assay: Antibacterial growth assay (OD600), statements on the whole panel; type: cell-based; details: growth after 48 h
A/Hamburg/05/2009 (H1N1) = type: cell-based, influenza virus
[9] = system: Pseudomonas aeruginosa DSM 1117; assay: Antibacterial growth assay (OD600); details: for Bacterial growth relative to medium, P. aeruginosa (1117), replicate 1 / Bacterial growth relative to medium, P. aeruginosa (1117), replicate 2 / Bacterial growth relative to medium, P. aeruginosa (1117), replicate 3: OD600, medium = 100, MH II broth, 37 °C, peptide 200 µM mixed 50 µL + 50 µL with bacteria, Figure 7: 48 h; for Bacterial growth relative to medium, P. aeruginosa (1117), replicate 1: replicate column 1; for Bacterial growth relative to medium, P. aeruginosa (1117), replicate 2: replicate column 2; for Bacterial growth relative to medium, P. aeruginosa (1117), replicate 3: replicate column 3
Procedure: as §1

A/Hessen/1/2003 (H3N2) = type: cell-based, influenza virus

| Sequence | Bacterial growth relative to medium, L. monocytogenes, replicate 1 [1] | Bacterial growth relative to medium, L. monocytogenes, replicate 2 [1] | Bacterial growth relative to medium, L. monocytogenes, replicate 3 [1] | Viability of infected cells relative to aprotinin, Replicate 1 [2] | Viability of infected cells relative to aprotinin, Replicate 2 [2] | Viability of infected cells relative to aprotinin, Replicate 3 [2] | Bacterial growth relative to medium, S. epidermidis, replicate 1 [3] | Bacterial growth relative to medium, S. epidermidis, replicate 2 [3] | Bacterial growth relative to medium, S. epidermidis, replicate 3 [3] | Bacterial growth relative to medium, E. coli, replicate 1 [4] | Bacterial growth relative to medium, E. coli, replicate 2 [4] | Bacterial growth relative to medium, E. coli, replicate 3 [4] | Bacterial growth relative to medium, M. luteus, replicate 1 [5] | Bacterial growth relative to medium, M. luteus, replicate 2 [5] | Bacterial growth relative to medium, M. luteus, replicate 3 [5] | Bacterial growth relative to medium, S. aureus, replicate 1 [6] | Bacterial growth relative to medium, S. aureus, replicate 2 [6] | Bacterial growth relative to medium, S. aureus, replicate 3 [6] | Bacterial growth relative to medium, P. aeruginosa (50071), replicate 1 [7] | Bacterial growth relative to medium, P. aeruginosa (50071), replicate 2 [7] | further results |
| --- | --- | --- | --- | --- | --- | --- | --- | --- | --- | --- | --- | --- | --- | --- | --- | --- | --- | --- | --- | --- | --- |
| SLFGLLDLVKSKVGQTGLL [LS-AMP-A1] | 93.4804 | 90.3626 | 102.296 | 0.04827 | 0.03878 | 0.05872 | 132.924 | 152.819 | 103.22 | 153.553 | 169.757 | 114.343 | 73.9935 | 135.023 | 50.2152 | 106.033 | 110.791 | 108.193 | 100.105 | 111.979 | Bacterial growth relative to medium, P. aeruginosa (50071), replicate 3 [7]: 89.7927; Antibacterial activity over the panel (in words) [8]: limited activity; Viability of infected cells relative to aprotinin, Replicate 1 (A/Hamburg/05/2009 (H1N1)): 0.03121; Viability of infected cells relative to aprotinin, Replicate 2 (A/Hamburg/05/2009 (H1N1)): 0.03837; Viability of infected cells relative to aprotinin, Replicate 3 (A/Hamburg/05/2009 (H1N1)): 0.04316; Bacterial growth relative to medium, P. aeruginosa (1117), replicate 1 [9]: 79.0357; Bacterial growth relative to medium, P. aeruginosa (1117), replicate 2 [9]: 70.5187; Bacterial growth relative to medium, P. aeruginosa (1117), replicate 3 [9]: 73.1051; Viability of infected cells relative to aprotinin, Replicate 1 (A/Hessen/1/2003 (H3N2)): 0.185; Viability of infected cells relative to aprotinin, Replicate 2 (A/Hessen/1/2003 (H3N2)): 0.1781; Viability of infected cells relative to aprotinin, Replicate 3 (A/Hessen/1/2003 (H3N2)): 0.1313 |
| SLLGLLDVVKNTVGQTG [LS-AMP-A9] | 56.5719 | 67.4623 | 66.1408 | 0.09007 | 0.06966 | 0.05846 | 52.3672 | 52.2824 | 65.3172 | 70.1329 | 70.7996 | 35.5653 | 52.4959 | 91.4416 | 32.7594 | 57.4133 | 67.8221 | 95.0991 | 97.5053 | 110.589 | Antibacterial activity (in words) [1]: able to decrease the growth; Antibacterial activity (in words) ([3]; S. epidermidis DSM 28319, growth after 48 h): able to decrease the growth; Antibacterial activity (in words) ([4]; E. coli BL21(DE3), growth after 48 h): able to decrease the growth; Antibacterial activity (in words) ([5]; M. luteus DSM 20030, growth after 48 h): able to decrease the growth; Antibacterial activity (in words) ([6]; S. aureus DSM 2569, growth after 48 h): able to decrease the growth; Bacterial growth relative to medium, P. aeruginosa (50071), replicate 3 [7]: 87.613; Antibacterial activity over the panel (in words) [8]: inhibited the growth of most of the bacteria except two; Viability of infected cells relative to aprotinin, Replicate 1 (A/Hamburg/05/2009 (H1N1)): 0.04771; Viability of infected cells relative to aprotinin, Replicate 2 (A/Hamburg/05/2009 (H1N1)): 0.03968; Viability of infected cells relative to aprotinin, Replicate 3 (A/Hamburg/05/2009 (H1N1)): 0.02362; Bacterial growth relative to medium, P. aeruginosa (1117), replicate 1 [9]: 56.3665; Bacterial growth relative to medium, P. aeruginosa (1117), replicate 2 [9]: 70.6926; Bacterial growth relative to medium, P. aeruginosa (1117), replicate 3 [9]: 77.8728; Viability of infected cells relative to aprotinin, Replicate 1 (A/Hessen/1/2003 (H3N2)): 0.1782; Viability of infected cells relative to aprotinin, Replicate 2 (A/Hessen/1/2003 (H3N2)): 0.2232; Viability of infected cells relative to aprotinin, Replicate 3 (A/Hessen/1/2003 (H3N2)): 0.05605 |
| SLLGLLDVVKNKVGQIGLL [LS-AMP-A3] | 59.9369 | 117.418 | 68.2929 | 0.05676 | 0.05168 | 0.08362 | 125.081 | 166.552 | 95.4096 | 114.847 | 118.887 | 89.3889 | 106.28 | 132.545 | 67.7188 | 77.3106 | 83.4859 | 97.1568 | 100.315 | 112.866 | Antibacterial activity (in words) [1]: less effective; Bacterial growth relative to medium, P. aeruginosa (50071), replicate 3 [7]: 88.8092; Antibacterial activity over the panel (in words) [8]: limited activity; Viability of infected cells relative to aprotinin, Replicate 1 (A/Hamburg/05/2009 (H1N1)): 0.0465; Viability of infected cells relative to aprotinin, Replicate 2 (A/Hamburg/05/2009 (H1N1)): 0.03476; Viability of infected cells relative to aprotinin, Replicate 3 (A/Hamburg/05/2009 (H1N1)): 0.04494; Bacterial growth relative to medium, P. aeruginosa (1117), replicate 1 [9]: 63.3724; Bacterial growth relative to medium, P. aeruginosa (1117), replicate 2 [9]: 74.5214; Bacterial growth relative to medium, P. aeruginosa (1117), replicate 3 [9]: 66.198; Antibacterial activity (in words) ([9]; P. aeruginosa DSM 1117, growth after 48 h): less effective; Viability of infected cells relative to aprotinin, Replicate 1 (A/Hessen/1/2003 (H3N2)): 0.1081; Viability of infected cells relative to aprotinin, Replicate 2 (A/Hessen/1/2003 (H3N2)): 0.01008; Viability of infected cells relative to aprotinin, Replicate 3 (A/Hessen/1/2003 (H3N2)): 0.02318 |
